The text below walks through data of PubChem BioAssay (NCI).

Among the test systems are CCRF-CEM leukemia; HT29 colon; PC-3 prostate; NCI-H23 lung; NCI-H226 lung; EKVX NSCLC; OVCAR-5 ovarian; LOX IMVI melanoma; MOLT-4 leukemia; HS 578T breast.
Assay in all cases: NCI tumour cell line growth inhibition, 48 h

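Test compounds were applied to cells in 96-well plates for 48 hours at 5 doses. Here, GI50 denotes the concentration required for 50% inhibition of growth. TGI is the concentration that stops growth completely.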

Take `C=C(C(=O)OCC)C(=O)OCC`: the TGI in the experiment on CCRF-CEM leukemia, in the experiment with HT29 colon, in the experiment on PC-3 prostate, with NCI-H23 lung, in the experiment with NCI-H226 lung and in the experiment on EKVX NSCLC was more than 100 µM throughout. Also, the TGI with OVCAR-5 ovarian, in the experiment with LOX IMVI melanoma, with MOLT-4 leukemia and in the experiment with HS 578T breast was more than 100 µM throughout.

For the molecule `Nc1ccc(N=Nc2c(S(=O)(=O)O)cc3ccccc3c2S(=O)(=O)O)cc1`, the TGI with CCRF-CEM leukemia, with HT29 colon, in the experiment on PC-3 prostate, in the experiment on NCI-H23 lung, in the experiment with NCI-H226 lung and in the experiment with EKVX NSCLC was more than 100 µM each time. Moreover, the TGI in the experiment with OVCAR-5 ovarian, in the experiment with LOX IMVI melanoma, in the experiment with MOLT-4 leukemia and in the experiment on HS 578T breast was more than 100 µM throughout.

As to `O=c1oc2cc(O)ccc2c(O)c1C(c1ccccc1)c1c(O)c2ccc(O)cc2oc1=O`, the TGI in the experiment on CCRF-CEM leukemia, in the experiment with HT29 colon, in the experiment with PC-3 prostate, in the experiment on NCI-H23 lung, in the experiment with NCI-H226 lung and in the experiment on EKVX NSCLC was more than 100 µM each time. The TGI with OVCAR-5 ovarian, in the experiment on LOX IMVI melanoma, in the experiment on MOLT-4 leukemia and in the experiment on HS 578T breast was more than 100 µM each time.

For the molecule `O=C1CC2(CCC(O)(c3ccc4ccccc4c3)C(C(=O)c3ccc4ccccc4c3)C2)C(=O)c2ccccc2N1` (centres undefined), the TGI in the experiment on CCRF-CEM leukemia, in the experiment on HT29 colon, with PC-3 prostate, with NCI-H23 lung, with NCI-H226 lung and in the experiment on EKVX NSCLC was more than 100 µM each time. For the same molecule, the TGI in the experiment with OVCAR-5 ovarian, in the experiment with LOX IMVI melanoma, with MOLT-4 leukemia and in the experiment on HS 578T breast was more than 100 µM in each case.

Turning to `O=C1CCC(c2ccccc2)=NN1c1nsc2ccccc12`, the TGI with CCRF-CEM leukemia, with HT29 colon, with NCI-H23 lung, in the experiment with EKVX NSCLC, with OVCAR-5 ovarian and with LOX IMVI melanoma was more than 100 µM each time. Further, the TGI in the experiment with MOLT-4 leukemia was more than 100 µM.

Consider `O=C(O)C(Cl)(Cl)Cl`, for which the TGI in the experiment on CCRF-CEM leukemia, with NCI-H23 lung, with NCI-H226 lung, in the experiment on EKVX NSCLC, with OVCAR-5 ovarian and in the experiment on LOX IMVI melanoma was more than 100 µM throughout. In the experiment on MOLT-4 leukemia, this molecule returned a TGI of more than 100 µM.

Regarding `CCCCCCCCCCCCCCCCNc1cccc2ccccc12`, the TGI with CCRF-CEM leukemia, with NCI-H23 lung, in the experiment with NCI-H226 lung, in the experiment on EKVX NSCLC, in the experiment with LOX IMVI melanoma and with MOLT-4 leukemia was more than 100 µM each time.

In the case of `C[n+]1c(/C=C/c2c(O)ccc3ccccc23)ccc2ccccc21`, the GI50 with CCRF-CEM leukemia was 2380 nM; in the experiment on HT29 colon it was 2040 nM; with PC-3 prostate it was 4000 nM; in the experiment on NCI-H23 lung, 5100 nM; with NCI-H226 lung, 5650 nM; in the experiment with EKVX NSCLC, 4.72 µM. Also, the GI50 with OVCAR-5 ovarian was 7.19 µM; in the experiment with LOX IMVI melanoma, 5650 nM; in the experiment on MOLT-4 leukemia, 7010 nM; in the experiment with HS 578T breast, 5.3 µM. Moreover, the TGI came out at 17.3 µM in the experiment with CCRF-CEM leukemia; 7.63 µM in the experiment with HT29 colon; 11.7 µM in the experiment on PC-3 prostate; 13.7 µM in the experiment on NCI-H23 lung; 13.2 µM in the experiment on NCI-H226 lung; 12.9 µM in the experiment on EKVX NSCLC. The TGI in the experiment with OVCAR-5 ovarian worked out at 15.2 µM; in the experiment on LOX IMVI melanoma, 12.7 µM; in the experiment on MOLT-4 leukemia, 23.4 µM; in the experiment with HS 578T breast, 21.5 µM.

Turning to `COc1cc2c(cc1OC)C(C(c1ccccc1)c1ccccc1)N(C)CC2` (centres undefined), the TGI with CCRF-CEM leukemia, with HT29 colon, with NCI-H23 lung, in the experiment on NCI-H226 lung, in the experiment with EKVX NSCLC and with OVCAR-5 ovarian was more than 100 µM in each case. The TGI in the experiment on LOX IMVI melanoma and in the experiment on MOLT-4 leukemia was more than 100 µM throughout.

For the molecule `C[N+](C)([O-])CCOc1cc2c(c3ccccc13)-c1ccccc1C2=O`, the TGI in the experiment on CCRF-CEM leukemia is more than 83.7 µM; in the experiment with HT29 colon it was more than 35.6 µM; with NCI-H23 lung, 74.7 µM; with NCI-H226 lung, 78.8 µM; with EKVX NSCLC it was 64.7 µM; in the experiment with OVCAR-5 ovarian, 59.2 µM. The TGI is more than 47.4 µM with LOX IMVI melanoma and more than 35.3 µM in the experiment with MOLT-4 leukemia.

For the molecule `COc1cnc2c(c1)C(=O)c1c-2n(CCCN2CCOCC2)c(=O)c2cc(Cl)ccc12`, the GI50 with CCRF-CEM leukemia was 120 nM; in the experiment with HT29 colon, 233 nM; with NCI-H23 lung it was 308 nM; with NCI-H226 lung, 396 nM; in the experiment on EKVX NSCLC, more than 100 µM; in the experiment on OVCAR-5 ovarian it was more than 100 µM. Moreover, the GI50 in the experiment with LOX IMVI melanoma was 152 nM; with MOLT-4 leukemia, 267 nM; in the experiment on HS 578T breast, 24.9 µM. The TGI in the experiment on CCRF-CEM leukemia, in the experiment with HT29 colon, in the experiment on NCI-H23 lung, in the experiment on NCI-H226 lung, in the experiment on EKVX NSCLC and in the experiment on OVCAR-5 ovarian was more than 100 µM throughout. For the same molecule, the TGI in the experiment on LOX IMVI melanoma is 0.532 µM; in the experiment on MOLT-4 leukemia, more than 100 µM; in the experiment on HS 578T breast, more than 100 µM.

For the molecule `NC(=O)c1c(NC(=O)c2ccccc2)sc2c1CCC(=O)C2`, the GI50 is 370 nM in the experiment on CCRF-CEM leukemia; 2330 nM with HT29 colon; 319 nM in the experiment on PC-3 prostate; 627 nM in the experiment on NCI-H23 lung; 2200 nM in the experiment with NCI-H226 lung; 1.82 µM with EKVX NSCLC. The GI50 in the experiment on OVCAR-5 ovarian is 1.77 µM; in the experiment with LOX IMVI melanoma, 1150 nM; in the experiment with MOLT-4 leukemia it was 1120 nM; with HS 578T breast it was 1.2 µM. Also, the TGI in the experiment with CCRF-CEM leukemia was more than 100 µM; in the experiment on HT29 colon it was more than 100 µM; with PC-3 prostate, 17.6 µM; in the experiment with NCI-H23 lung it was 5.83 µM; in the experiment on NCI-H226 lung, 9.1 µM; in the experiment with EKVX NSCLC, 11.5 µM. The TGI in the experiment with OVCAR-5 ovarian stood at 11 µM; in the experiment with LOX IMVI melanoma, 19.5 µM; in the experiment on MOLT-4 leukemia, 8.3 µM; in the experiment on HS 578T breast, 6.97 µM.
